Molecular target: T1, NTCP (Homo sapiens, UniProt Q14973)
T1 construct: the coding region ligated into pcDNA5/FRT; expressed in transfected cells
T1 sequence (Q14973 1-349): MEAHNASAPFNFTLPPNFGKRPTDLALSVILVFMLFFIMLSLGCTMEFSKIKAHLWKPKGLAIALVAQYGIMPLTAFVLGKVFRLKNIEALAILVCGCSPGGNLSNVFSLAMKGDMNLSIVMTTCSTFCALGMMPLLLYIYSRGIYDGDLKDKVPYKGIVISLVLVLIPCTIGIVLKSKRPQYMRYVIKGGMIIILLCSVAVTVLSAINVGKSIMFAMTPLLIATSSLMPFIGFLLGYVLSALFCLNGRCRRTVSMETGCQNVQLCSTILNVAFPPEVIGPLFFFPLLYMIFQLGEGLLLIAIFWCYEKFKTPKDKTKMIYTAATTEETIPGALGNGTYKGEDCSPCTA
Assay: Inhibition by CLF of TC transport in CHO cells expressing NTCP
Type: cell-based
Conditions: 0, 5 or 50 μmol/L CLF, 2.5 μmol/L TC
Protocol: FIGS. 3A-3D relate to inhibition of transport activity of hepatocellular uptake transporters by CLF. CHO cells expressing NTCP, OATP1B1, OATP1B3 and OATP2B1 were incubated with 0, 5 or 50 μmol/L CLF and with the substrates, 2.5 μmol/L TC, 1 μmol/L estrone-3-sulfate, 10 μmol/L TC and 1 μmol/L estrone-3-sulfate, respectively. Data represent means±SD of triplicate determinations.
For all transport experiments, cells grown on 3 cm culture dishes were cultured for 24 hours in media supplemented with 5 mmol/L sodium-butyrate to increase expression levels of transfected transporters [Palermo D P et al., J Biotechnol 1991 June; 19(1):35-47]. • Transport experiments with uptake of radioactively labeled substrates: These experiments were performed as described by Huber R D et al. [Am J Physiol Cell Physiol 2007 February; 292(2):C795-C806]. • Transport experiments with uptake of CLF: Uptake was performed in the same buffers as for the radioactive substrates above. […] After complete solubilization, 1.5 ml was used to measure fluorescence in a Perkin-Elmer LS-5 luminescence-spectrometer set at λexe 486 nm (slit 10 nm) and λem 520 nm (slit 5 nm). Protein was determined with the bicinchoninic acid method using a kit from Interchim (Montfuçon, France). […]

**Q.** Which “inhibition of transport of TC via NTCP by CLF” value does the source give for `CC(CCC(=O)NC(CCCCNC(=S)Nc1ccc(-c2c3ccc(=O)cc-3oc3cc(O)ccc23)c(C(=O)O)c1)C(=O)O)C1CCC2C3C(O)CC4CC(O)CCC4(C)C3CC(O)C12C` (stereo not shown) [CLF, cholyl lysyl fluorescein] here?
**A.** The value was “very efficiently inhibited”.
